Reference: patent US8084649B2, “Herbicides” (Syngenta Crop Protection, inc., priority 2007, dated 2011)

Key:
Type in all cases: in vivo
[1] = test system: Echinochloa crus-galli (ECHCG); assay: Pre-emergence herbicidal activity, glasshouse pot test; details: Echinochloa crus-galli, 480 h, rate 500 g/ha, evaluated after 20 days, read-out: Pre-emergence activity, ECHCG (100=total damage to plant; 0=no damage to plant)
Protocol: (§1) Monocotyledonous and dicotyledonous test plants were sown in sterilised standard soil in pots. After cultivation for one day (pre-emergence) or after 10 days cultivation (post-emergence) under controlled conditions in a glasshouse, the plants were sprayed with an aqueous spray solution derived from the formulation of the technical active ingredient in 0.6 ml acetone and 45 ml formulation solution containing 10.6% Emulsogen EL (Registry number 61791-12-6), 42.2% N-methylpyrrolidone, 42.2% dipropylene glycol monomethyl ether (Registry number 34590-94-8) and 0.2% X-77 (Registry number 11097-66-8). The test plants were then grown in a greenhouse under optimum conditions until, 14 or 15 days later for post-emergence and 20 days for pre-emergence, the test was evaluated (100=total damage to plant; 0=no damage to plant). Alopecurus myosuroides (ALOMY), Avena fatua (AVEFA), Lolium perenne (LOLPE), Setaria faberi (SETFA), Digitaria sanguinalis (DIGSA), Echinochloa crus-galli (ECHCG) Pre-Emergence Activity

[2] = test system: Digitaria sanguinalis (DIGSA); assay: as above; details: Digitaria sanguinalis, 480 h, rate 500 g/ha, evaluated after 20 days, read-out: Pre-emergence activity, DIGSA (100=total damage to plant; 0=no damage to plant)
Protocol: as §1

Lolium perenne (LOLPE) [3] = assay: as above; details: Lolium perenne, 480 h, rate 500 g/ha, evaluated after 20 days, read-out: Pre-emergence activity, LOLPE (100=total damage to plant; 0=no damage to plant)
Protocol: as §1

Avena fatua (AVEFA) [4] = assay: as above; details: Avena fatua, 480 h, rate 500 g/ha, evaluated after 20 days, read-out: Pre-emergence activity, AVEFA (100=total damage to plant; 0=no damage to plant)
Protocol: as §1

[5] = test system: Alopecurus myosuroides (ALOMY); assay: as above; details: Alopecurus myosuroides, 480 h, rate 500 g/ha, evaluated after 20 days, read-out: Pre-emergence activity, ALOMY (100=total damage to plant; 0=no damage to plant)
Protocol: as §1

Setaria faberi (SETFA) [6] = assay: as above; details: Setaria faberi, 480 h, rate 500 g/ha, evaluated after 20 days, read-out: Pre-emergence activity, SETFA (100=total damage to plant; 0=no damage to plant)
Protocol: as §1

[7] = test system: Echinochloa crus-galli (ECHCG); assay: Post-emergence herbicidal activity, glasshouse pot test; details: Echinochloa crus-galli, rate 125 g/ha, evaluated after 14 or 15 days, read-out: Post-emergence activity, ECHCG (100=total damage to plant; 0=no damage to plant)
Protocol: as §1, with “Post-Emergence” for “Pre-Emergence”

[8] = test system: Digitaria sanguinalis (DIGSA); assay: as above; details: Digitaria sanguinalis, rate 125 g/ha, evaluated after 14 or 15 days, read-out: Post-emergence activity, DIGSA (100=total damage to plant; 0=no damage to plant)
Protocol: as §1, with “Post-Emergence” for “Pre-Emergence”

Lolium perenne (LOLPE) [9] = assay: as above; details: Lolium perenne, rate 125 g/ha, evaluated after 14 or 15 days, read-out: Post-emergence activity, LOLPE (100=total damage to plant; 0=no damage to plant)
Protocol: as §1, with “Post-Emergence” for “Pre-Emergence”

Avena fatua (AVEFA) [10] = assay: as above; details: Avena fatua, rate 125 g/ha, evaluated after 14 or 15 days, read-out: Post-emergence activity, AVEFA (100=total damage to plant; 0=no damage to plant)
Protocol: as §1, with “Post-Emergence” for “Pre-Emergence”

[11] = test system: Alopecurus myosuroides (ALOMY); assay: as above; details: Alopecurus myosuroides, rate 125 g/ha, evaluated after 14 or 15 days, read-out: Post-emergence activity, ALOMY (100=total damage to plant; 0=no damage to plant)
Protocol: as §1, with “Post-Emergence” for “Pre-Emergence”

Setaria faberi (SETFA) [12] = assay: as above; details: Setaria faberi, rate 125 g/ha, evaluated after 14 or 15 days, read-out: Post-emergence activity, SETFA (100=total damage to plant; 0=no damage to plant)
Protocol: as §1, with “Post-Emergence” for “Pre-Emergence”

Compound	pest or weed control at 500 g/ha [1] [%]	pest or weed control at 500 g/ha [2] [%]	pest or weed control at 500 g/ha (Lolium perenne (LOLPE) [3]) [%]	pest or weed control at 500 g/ha (Avena fatua (AVEFA) [4]) [%]	pest or weed control at 500 g/ha [5] [%]	pest or weed control at 500 g/ha (Setaria faberi (SETFA) [6]) [%]	pest or weed control at 125 g/ha [7] [%]	pest or weed control at 125 g/ha [8] [%]	pest or weed control at 125 g/ha (Lolium perenne (LOLPE) [9]) [%]	pest or weed control at 125 g/ha (Avena fatua (AVEFA) [10]) [%]	pest or weed control at 125 g/ha [11] [%]	pest or weed control at 125 g/ha (Setaria faberi (SETFA) [12]) [%]
CCc1cc(C)cc(CC)c1C1=C(OC(=O)CC2CCCC2)CC2(CCOCC2)CC1=O [Compound P11]	90	100	90	90	100	100	70	70	90	100	90	70
CCc1cc(C)cc(CC)c1C1=C(OC(=O)C2CCCCC2)CC2(CCOCC2)CC1=O [Compound P12]	100	100	100	100	100	100	100	90	100	90	80	90
CCc1cc(C)cc(CC)c1C1=C(OC(=O)C(C)CC)CC2(CCOCC2)CC1=O (stereo not drawn) [Compound P13]	100	100	100	100	100	100	100	100	90	100	90	90
CCc1cc(C)cc(CC)c1C1=C(OC(=O)C(CC)CC)CC2(CCOCC2)CC1=O [Compound P14]	90	100	100	100	100	100	60	70	80	80	80	60
CCOC(=O)OC1=C(c2c(CC)cc(C)cc2CC)C(=O)CC2(CCOCC2)C1 [Compound P16]	100	100	100	100	100	100	100	100	100	90	100	70
CCc1cc(C)cc(CC)c1C1=C(OC(=O)OCc2ccccc2)CC2(CCOCC2)CC1=O [Compound P17]	100	100	100	100	100	100	70	70	80	80	90	70
CCc1cc(C)cc(CC)c1C1=C(OC(=O)Oc2ccccc2)CC2(CCOCC2)CC1=O [Compound P18]	80	100	100	100	100	100	100	70	90	100	80	50
CCc1cc(C)cc(CC)c1C1=C(OC(=O)OCC(C)(C)C)CC2(CCOCC2)CC1=O [Compound P19]	100	100	100	100	100	100	100	70	90	90	90	70
CCc1cc(C)cc(CC)c1C1=C(OC(=O)OCC(C)C)CC2(CCOCC2)CC1=O [Compound P20]	100	100	100	100	100	100	100	70	90	100	90	70
C=CCOC(=O)OC1=C(c2c(CC)cc(C)cc2CC)C(=O)CC2(CCOCC2)C1 [Compound P21]	100	100	100	100	100	100	100	100	90	100	100	90
C#CCOC(=O)OC1=C(c2c(CC)cc(C)cc2CC)C(=O)CC2(CCOCC2)C1 [Compound P22]	100	100	100	100	100	100	90	100	90	100	90	90
CCc1cc(C)cc(CC)c1C1=C(OS(C)(=O)=O)CC2(CCOCC2)CC1=O [Compound P24]	50	70	80	80	80	90	0	0	0	0	0	0
